Holding throughout (test): fluorescence titration (ligand quenching)
Common to all, as to conditions: 125 mM K+, 5 mM Mg2+; 40 mM HEPES pH 7.4, 25 °C, 50 nM ligand, RNA titrated, Hill fit

Experiment [1] has as its system R10K6 (RNA, aptamer) GGGAGACGCAACUGAAUGAAAAUGUCAUUCAAGACUAGGUUGUGACUGCUUAGGCAGUUGUGGACGGCUAAGCCCACCAGAGGUCCGUAACUAGUCGCGUCAC
Experiment [2] deals with R10K6_V11 (RNA, aptamer) GGGAGACGCAACAGACUAGGUUGUGACUGCUUAGGCAGUUGUGGACGGCUAAGCCCACCAGAGGUCCGUAACUAGUCGCGUCAC
For experiment [3], the system named is V8 (R10K6 without stem P5a) (RNA, aptamer) GGGAGACGCAACUGAAUGAAAAUGUCAUUCAAGACUAGGUUGUGACUGCUUAGGCAGUUGUGGACACCAGAGGUCCGUAACUAGUCGCGUCAC
Experiment [4] deals with V10 (R10K6 with changed J5a/5) (RNA, aptamer) GGGAGACGCAACUGAAUGAAAAUGUCAUUCAAGACUAGGUUGUGACUGCUUAGGCAGUUGUGGACGGCUAAGCCCAAACAAAGUCCGUAACUAGUCGCGUCAC
For experiment [5], the system named is V13 (R10K6 ∆P1∆P2) (RNA, aptamer) GACUAGGUUGUGACUGCUUAGGCAGUUGUGGACGGCUAAGCCCACCAGAGGUCCGUAACUAGUC
Experiment [6] concerns V4 (R10K6 without P5 and P5a) (RNA, aptamer) GGGAGACGCAACUGAAUGAAAAUGUCAUUCAAGACUAGGUUGUGACUGCUUAGGCAGUUGUAACUAGUCGCGUCAC
Experiment [7] relates to V17 (R10K6 with shortened P4) (RNA, aptamer) GGGAGACGCAACUGAAUGAAAAUGUCAUUCAAGACUAGGUUGUGACAAAGGUUGUGGACGGCUAAGCCCACCAGAGGUCCGUAACUAGUCGCGUCAC

For the compound `CCn1cc(C(=O)O)c(=O)c2cc(F)c(N3CCNCC3)cc21`, the binding result in experiment [1] is “yes”.
Consider `O=c1ccn(C2CC2)c2cc(N3CCNCC3)c(F)cc12`, for which the binding result in experiment [1] is “weak”.
As to `CN1C[C@@H]2C[C@H]1CN2c1cc2c(cc1F)c(=O)c(C(=O)O)cn2C1CC1`, in experiment [1], the binding result is listed as “yes”.
As for `CCN1CCN(c2cc3c(cc2F)c(=O)c(C(=O)O)cn3C2CC2)CC1`, in experiment [1], the binding result is given as “yes”.
For `O=C(O)c1cn(C2CC2)c2cc(N3CCNCC3)c(F)cc2c1=O`, the KD is given as 31 nM in experiment [1]; 36 nM in experiment [2]; 76 nM in experiment [3]; 101 nM in experiment [4]; 473 nM in experiment [5]. Further, the binding entry in experiment [6] and in experiment [7] was “no” each time.

The term KD denotes the free concentration of one partner at which half of the binding sites on the other are occupied at equilibrium, for simple one-to-one binding. Higher therefore signals a looser complex.
